Test system: patients with cGVHD
Settings: Cohort 1 200 mg QD

CC(C)NC(=O)COc1cccc(-c2nc(Nc3ccc4[nH]ncc4c3)c3ccccc3n2)c1 [Belumosudil, 2-{3-[4-(1H-indazol-5-ylamino)-2-quinazolinyl]phenoxy}-N-(propan-2-yl) acetamide]
Abdominal distension: # Events: 1 | Abdominal distension: Affected/At Risk (%): 1/17 (5.88%) | Abdominal pain upper: # Events: 1 | Abdominal pain upper: Affected/At Risk (%): 1/17 (5.88%) | Abdominal pain: # Events: 2 | Abdominal pain: Affected/At Risk (%): 2/17 (11.76%) | Actinic keratosis: # Events: 0 | Actinic keratosis: Affected/At Risk (%): 0/17 (0%) | Acute kidney injury: # Events: 4 | Acute kidney injury: Affected/At Risk (%): 1/17 (5.88%) | Acute respiratory distress syndrome: # Events: 1 | Acute respiratory distress syndrome: Affected/At Risk (%): 1/17 (5.88%) | Adrenal insufficiency: # Events: 2 | Adrenal insufficiency: Affected/At Risk (%): 1/17 (5.88%) | Alanine aminotransferase increased: # Events: 12 | Alanine aminotransferase increased: Affected/At Risk (%): 6/17 (35.29%) | All grade ALT/AST increased, No. (%): 11 (65) | All grade Cough, No. (%): 1 (6) | All grade Diarrhea, No. (%): 6 (35) | All grade Dyspnea, No. (%): 3 (18) | All grade Fatigue, No. (%): 6 (35) | All grade Headache, No. (%): 4 (24) | All grade Hypertension, No. (%): 5 (29) | All grade Nausea, No. (%): 6 (35) | All grade Peripheral edema, No. (%): 3 (18) | All grade URI, No. (%): 9 (53) | All-Cause Mortality, %: (11.76%) | All-Cause Mortality, Affected/At Risk: 2/17 | Anaemia: # Events: 14 | Anaemia: Affected/At Risk (%): 5/17 (29.41%) | Anal incontinence: # Events: 2 | Anal incontinence: Affected/At Risk (%): 1/17 (5.88%) | Anxiety: # Events: 1 | Anxiety: Affected/At Risk (%): 1/17 (5.88%) | Any AE, No. (%): 17 (100) | Arthralgia: # Events: 1 | Arthralgia: Affected/At Risk (%): 1/17 (5.88%) | Aspartate aminotransferase increased: # Events: 8 | Aspartate aminotransferase increased: Affected/At Risk (%): 5/17 (29.41%) | Asthenia: # Events: 0 | Asthenia: Affected/At Risk (%): 0/17 (0%) | Atelectasis: # Events: 1 | Atelectasis: Affected/At Risk (%): 1/17 (5.88%) | Back pain: # Events: 0 | Back pain: Affected/At Risk (%): 0/17 (0%) | Balance disorder: # Events: 0 | Balance disorder: Affected/At Risk (%): 0/17 (0%) | Basal cell carcinoma: # Events: 0 | Basal cell carcinoma: Affected/At Risk (%): 0/17 (0%) | Benign prostatic hyperplasia: # Events: 1 | Benign prostatic hyperplasia: Affected/At Risk (%): 1/17 (5.88%) | Blepharitis: # Events: 1 | Blepharitis: Affected/At Risk (%): 1/17 (5.88%) | Blister: # Events: 0 | Blister: Affected/At Risk (%): 0/17 (0%) | Blood alkaline phosphatase increased: # Events: 6 | Blood alkaline phosphatase increased: Affected/At Risk (%): 4/17 (23.53%) | Blood chloride decreased: # Events: 0 | Blood chloride decreased: Affected/At Risk (%): 0/17 (0%) | Blood cholesterol increased: # Events: 2 | Blood cholesterol increased: Affected/At Risk (%): 1/17 (5.88%) | Blood creatine increased: # Events: 0 | Blood creatine increased: Affected/At Risk (%): 0/17 (0%) | Blood creatine phosphokinase increased: # Events: 1 | Blood creatine phosphokinase increased: Affected/At Risk (%): 1/17 (5.88%) | Blood creatinine increased: # Events: 1 | Blood creatinine increased: Affected/At Risk (%): 1/17 (5.88%) | Blood loss anaemia: # Events: 1 | Blood loss anaemia: Affected/At Risk (%): 1/17 (5.88%) | Bronchial secretion retention: # Events: 0 | Bronchial secretion retention: Affected/At Risk (%): 0/17 (0%) | Bronchitis: # Events: 1 | Bronchitis: Affected/At Risk (%): 1/17 (5.88%) | Bronchoscopy: # Events: 1 | Bronchoscopy: Affected/At Risk (%): 1/17 (5.88%) | Catheter site haemorrhage: # Events: 1 | Catheter site haemorrhage: Affected/At Risk (%): 1/17 (5.88%) | Chills: # Events: 1 | Chills: Affected/At Risk (%): 1/17 (5.88%) | Chronic kidney disease: # Events: 1 | Chronic kidney disease: Affected/At Risk (%): 1/17 (5.88%) | Conjunctival haemorrhage: # Events: 0 | Conjunctival haemorrhage: Affected/At Risk (%): 0/17 (0%) | Conjunctivitis: # Events: 0 | Conjunctivitis: Affected/At Risk (%): 0/17 (0%) | Constipation: # Events: 1 | Constipation: Affected/At Risk (%): 1/17 (5.88%) | Contrast media allergy: # Events: 0 | Contrast media allergy: Affected/At Risk (%): 0/17 (0%) | Contusion: # Events: 2 | Contusion: Affected/At Risk (%): 2/17 (11.76%) | Corneal abrasion: # Events: 1 | Corneal abrasion: Affected/At Risk (%): 1/17 (5.88%) | Corneal infection: # Events: 0 | Corneal infection: Affected/At Risk (%): 0/17 (0%) | Cough: # Events: 1 | Cough: Affected/At Risk (%): 1/17 (5.88%) | Death, No. (%): 0 | Decreased appetite: # Events: 4 | Decreased appetite: Affected/At Risk (%): 2/17 (11.76%) | Dehydration: # Events: 2 | Dehydration: Affected/At Risk (%): 2/17 (11.76%) | Depression: # Events: 0 | Depression: Affected/At Risk (%): 0/17 (0%) | Diarrhoea: # Events: 9 | Diarrhoea: Affected/At Risk (%): 6/17 (35.29%) | Dizziness: # Events: 0 | Dizziness: Affected/At Risk (%): 0/17 (0%) | Drug eruption: # Events: 0 | Drug eruption: Affected/At Risk (%): 0/17 (0%) | Drug-related AE, No. (%): 8 (47) | Drug-related SAE, No. (%): 0 | Dry eye: # Events: 3 | Dry eye: Affected/At Risk (%): 2/17 (11.76%) | Dry skin: # Events: 1 | Dry skin: Affected/At Risk (%): 1/17 (5.88%) | Dyspepsia: # Events: 0 | Dyspepsia: Affected/At Risk (%): 0/17 (0%) | Dysphagia: # Events: 1 | Dysphagia: Affected/At Risk (%): 1/17 (5.88%) | Dyspnoea exertional: # Events: 1 | Dyspnoea exertional: Affected/At Risk (%): 1/17 (5.88%) | Dyspnoea: # Events: 2 | Dyspnoea: Affected/At Risk (%): 2/17 (11.76%) | Embolism: # Events: 1 | Embolism: Affected/At Risk (%): 1/17 (5.88%) | Enamel anomaly: # Events: 0 | Enamel anomaly: Affected/At Risk (%): 0/17 (0%) | Epidural lipomatosis: # Events: 1 | Epidural lipomatosis: Affected/At Risk (%): 1/17 (5.88%) | Epstein-Barr virus infection: # Events: 1 | Epstein-Barr virus infection: Affected/At Risk (%): 1/17 (5.88%) | Erectile dysfunction: # Events: 4 | Erectile dysfunction: Affected/At Risk (%): 2/17 (11.76%) | Eye irritation: # Events: 1 | Eye irritation: Affected/At Risk (%): 1/17 (5.88%) | Eye pain: # Events: 0 | Eye pain: Affected/At Risk (%): 0/17 (0%) | Eye pruritus: # Events: 0 | Eye pruritus: Affected/At Risk (%): 0/17 (0%) | Fall: # Events: 2 | Fall: Affected/At Risk (%): 2/17 (11.76%) | Fatigue: # Events: 7 | Fatigue: Affected/At Risk (%): 6/17 (35.29%) | Flatulence: # Events: 0 | Flatulence: Affected/At Risk (%): 0/17 (0%) | Flushing: # Events: 0 | Flushing: Affected/At Risk (%): 0/17 (0%) | Fungal infection: # Events: 1 | Fungal infection: Affected/At Risk (%): 1/17 (5.88%) | Gamma-glutamyltransferase increased: # Events: 9 | Gamma-glutamyltransferase increased: Affected/At Risk (%): 4/17 (23.53%) | Gastric ulcer: # Events: 0 | Gastric ulcer: Affected/At Risk (%): 0/17 (0%) | Gastrooesophageal reflux disease: # Events: 2 | Gastrooesophageal reflux disease: Affected/At Risk (%): 2/17 (11.76%) | Generalised oedema: # Events: 1 | Generalised oedema: Affected/At Risk (%): 1/17 (5.88%) | Genital infection fungal: # Events: 0 | Genital infection fungal: Affected/At Risk (%): 0/17 (0%) | Glaucoma: # Events: 0 | Glucose urine present: # Events: 3 | Glucose urine present: Affected/At Risk (%): 2/17 (11.76%) | Grade ≥3 AE, No. (%): 9 (53) | Grade ≥3 ALT/AST increased, No. (%): 2 (12) | Grade ≥3 Anemia, No. (%): 2 (12) | Grade ≥3 Dyspnea, No. (%): 1 (6) | Grade ≥3 Hyperglycemia, No. (%): 2 (12) | Grade ≥3 Hypoxia, No. (%): 1 (6)
